# Substitutions are numbered along the chain they refer to.
# What was measured:
# [1] = target: T1, W54A/C89A/C186A mutant of mouse L-PGDS (Mus musculus, UniProt O09114, C186A/C89A/W54A); assay: Intrinsic tryptophan fluorescence quenching assay, W54A/C89A/C186A mutant; type: binding
# T1 sequence (O09114 23-189 W54A/C89A/C186A): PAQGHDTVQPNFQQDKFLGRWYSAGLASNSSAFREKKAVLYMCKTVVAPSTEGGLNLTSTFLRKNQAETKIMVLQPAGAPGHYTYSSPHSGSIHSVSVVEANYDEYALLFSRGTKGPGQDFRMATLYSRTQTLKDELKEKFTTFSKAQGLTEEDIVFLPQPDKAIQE
# [2] = target: T2, C89A/C186A mutant of mouse L-PGDS (Mus musculus, UniProt O09114, C186A/C89A); assay: Intrinsic tryptophan fluorescence quenching assay, C89A/C186A mutant; type: binding
# T2 sequence (O09114 23-189 C89A/C186A): T1 sequence (O09114 23-189 W54A/C89A/C186A) with A32W
# [3] = Acute toxicity after oral administration; type: in vivo; conditions: dose of 100 mg/kg
# [4] = tested on: L-PGDS-expressing human medulloblastoma TE-671 cells; assay: PG production by A23187-stimulated TE-671 cells; type: cell-based
# [5] = Maximum solubility in aqueous solution; type: physicochemical
# H-PGDS = H-PGDS (Homo sapiens, UniProt O60760); assay: H-PGDS enzyme activity assay; type: biochemical; conditions: AT-56 up to 250 μM
# Sequence of H-PGDS (O60760 whole entry, species assumed): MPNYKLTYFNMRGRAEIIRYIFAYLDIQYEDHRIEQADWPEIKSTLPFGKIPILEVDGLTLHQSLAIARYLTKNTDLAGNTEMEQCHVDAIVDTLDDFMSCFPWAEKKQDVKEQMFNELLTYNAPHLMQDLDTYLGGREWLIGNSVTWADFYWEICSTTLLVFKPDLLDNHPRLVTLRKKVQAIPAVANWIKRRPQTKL
# m-PGES-1 = target: T3, m-PGES-1 (Homo sapiens, UniProt O14684); assay: m-PGES-1 enzyme activity assay; type: biochemical; conditions: AT-56 up to 250 μM
# T3 sequence (O14684 1-152): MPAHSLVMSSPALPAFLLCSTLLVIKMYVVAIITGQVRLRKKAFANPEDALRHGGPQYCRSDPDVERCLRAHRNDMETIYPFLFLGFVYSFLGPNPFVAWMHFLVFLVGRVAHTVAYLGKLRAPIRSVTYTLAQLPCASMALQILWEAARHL
# COX-1 = COX-1 (Homo sapiens, UniProt P23219); assay: COX-1 enzyme activity assay; type: biochemical; conditions: AT-56 up to 250 μM
# Sequence of COX-1 (P23219 24-599): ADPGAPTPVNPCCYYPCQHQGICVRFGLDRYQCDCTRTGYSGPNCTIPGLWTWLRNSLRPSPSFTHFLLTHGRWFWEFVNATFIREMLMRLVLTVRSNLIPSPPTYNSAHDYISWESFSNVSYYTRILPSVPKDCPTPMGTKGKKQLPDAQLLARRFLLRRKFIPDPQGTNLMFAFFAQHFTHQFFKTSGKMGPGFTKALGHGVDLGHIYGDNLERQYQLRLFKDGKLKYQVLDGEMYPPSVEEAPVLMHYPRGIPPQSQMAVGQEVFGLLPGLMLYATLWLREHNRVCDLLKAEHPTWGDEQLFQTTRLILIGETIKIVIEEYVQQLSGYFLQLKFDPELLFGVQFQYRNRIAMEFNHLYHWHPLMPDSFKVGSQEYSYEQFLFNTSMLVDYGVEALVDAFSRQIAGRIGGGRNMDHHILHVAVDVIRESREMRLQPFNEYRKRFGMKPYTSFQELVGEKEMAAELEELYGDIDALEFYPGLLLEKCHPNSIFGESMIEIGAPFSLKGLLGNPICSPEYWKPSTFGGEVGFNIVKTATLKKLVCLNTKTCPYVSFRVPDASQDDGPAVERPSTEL
# brain of H-PGDS KO mice = assay: PG production by stab wound brain injury
# [6] = tested on: H-PGDS-expressing human megakaryoblastic MEG-01S cells; assay: PGD2 production by A23187-stimulated MEG-01S cells; type: cell-based
# COX-2 = target: T4, COX-2 (Homo sapiens, UniProt P35354); assay: COX-2 enzyme activity assay; type: biochemical; conditions: AT-56 up to 250 μM
# T4 sequence (P35354 18-604): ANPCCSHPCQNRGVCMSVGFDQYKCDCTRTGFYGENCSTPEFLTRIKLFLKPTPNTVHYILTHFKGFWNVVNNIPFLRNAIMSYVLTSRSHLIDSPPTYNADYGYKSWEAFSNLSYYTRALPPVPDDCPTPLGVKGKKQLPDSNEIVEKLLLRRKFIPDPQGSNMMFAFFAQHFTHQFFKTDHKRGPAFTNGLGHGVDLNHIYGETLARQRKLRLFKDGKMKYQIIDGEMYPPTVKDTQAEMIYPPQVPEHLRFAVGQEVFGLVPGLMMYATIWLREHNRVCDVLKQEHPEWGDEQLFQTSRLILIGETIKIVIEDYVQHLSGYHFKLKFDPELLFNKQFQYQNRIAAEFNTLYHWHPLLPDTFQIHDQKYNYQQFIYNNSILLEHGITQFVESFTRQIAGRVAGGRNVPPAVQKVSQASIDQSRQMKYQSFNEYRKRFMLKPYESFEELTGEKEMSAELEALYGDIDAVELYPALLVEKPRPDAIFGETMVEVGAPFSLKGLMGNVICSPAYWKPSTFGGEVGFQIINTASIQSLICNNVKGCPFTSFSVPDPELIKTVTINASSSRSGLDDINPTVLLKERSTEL
# [7] = target: T5, recombinant mouse L-PGDS C89A/C186A mutant (Mus musculus, UniProt O09114, C186A/C89A); assay: biochemical
# T5 sequence (O09114 23-189 C89A/C186A): T1 sequence (O09114 23-189 W54A/C89A/C186A) with A32W
# [8] = Pharmacokinetics of AT-56 in plasma; type: in vivo, C57BL/6 mice; conditions: male, C57BL/6, mouse; for Tmax: mice
# human L-PGDS TG mice = assay: L-PGDS-mediated allergic airway inflammation; type: in vivo
# [9] = 0 to 30 μM AT-56, 5 μM A23187, enzyme immunoassay
smiles,measurement,setting,value
"CC1=C(/C=C/C(C)=C/C=C/C(C)=C\C(=O)O)C(C)(C)CCC1 [13-cis-retinoic acid, reference compound]",tryptophan fluorescence intensity decreased to,[1]; 10 μM 13-cis-retinoic acid,< 10%
same,tryptophan fluorescence intensity decreased to,"[2]; 10 μM 13-cis-retinoic acid, absence of AT-56",about 8%
same,tryptophan fluorescence intensity decreased to,"[2]; 10 μM 13-cis-retinoic acid, in the presence of 10 μM AT-56",< 10%
"C1=Cc2ccccc2C(=C2CCN(CCCCc3nn[nH]n3)CC2)c2ccccc21 [AT-56, 4-dibenzo[a,d]cyclohepten-5-ylidene-1-[4-(2H-tetrazol-5-yl)-butyl]-piperidine]",acute toxic effects,[3],did not detect any acute toxic effects
same,effect on PGE2 production,[4]; [9],without affecting
same,effect on PGF2α production,[4]; [9],without affecting
same,PGD2 biosynthesis,"[4]; 10 μM AT-56, A23187",only a base level
same,arachidonic acid release,"[4]; 10 μM AT-56, A23187",without changing
same,IC50,"[4]; Homo sapiens, TE-671, read-out: IC50, PGD2 production",~3 µM
same,production of other 14C-labeled metabolites,"[4]; [1-14C]arachidonic acid-prelabeled cells, AT-56 up to 100 μM",not inhibited
same,solubility,[5]; 10% DMSO,260 µM
same,solubility,[5]; saline containing 1% DMSO,90 µM
same,effect on H-PGDS activity,H-PGDS,not significantly affected
same,effect on m-PGES-1 activity,m-PGES-1,not significantly affected
same,effect on COX-1 activity,COX-1,not significantly affected
same,total amount of PGD2 in the brain decreased to,brain of H-PGDS KO mice; 30 mg/kg AT-56 orally 1 h before the injury,40%
same,amount of PGE2 in the brain,brain of H-PGDS KO mice; AT-56 orally 1–30 mg/kg,not significantly changed
same,amount of PGF2α in the brain,brain of H-PGDS KO mice; AT-56 orally 1–30 mg/kg,not significantly changed
same,effect on PGD2 production,[6],no effect
same,effect on COX-2 activity,COX-2,not significantly affected
same,IC50,[7],95 µM
same,Ki,[7],75 µM
same,fluorescence quenching,[1]; 10 μM AT-56,did not show the fluorescence quenching
same,AUC,"[8]; iv, 2 mg/kg",1280 ng·h/mL
same,C0,"[8]; iv, 2 mg/kg",860 ng/mL
same,half-life,"[8]; iv, 2 mg/kg",2.35 h
same,Tmax,"[8]; iv, 2 mg/kg",0.08 h
same,AUC,"[8]; po, 10 mg/kg",8950 ng·h/mL
same,Cmax,"[8]; po, 10 mg/kg",2150 ng/mL
same,bioavailability,"[8]; po, 10 mg/kg",82%
same,concentration at 12 h,"[8]; po, 10 mg/kg",< 0.4 ng/mL
same,half-life,"[8]; po, 10 mg/kg",1.71 h
same,Tmax,"[8]; po, 10 mg/kg, per os",0.5 h
same,effect on binding of 13-cis-retinoic acid to L-PGDS,[2]; 10 μM AT-56,did not inhibit the binding
same,tryptophan fluorescence intensity decreased to,[2]; 10 μM AT-56,about 60%
same,"total cells in BALF, actual number",human L-PGDS TG mice; 1 mg/kg AT-56 p.o.,8.7 ± 1.9 × 10^4 cells/ml
same,"total cells in BALF, actual number",human L-PGDS TG mice; 10 mg/kg AT-56 p.o.,2.7 ± 0.4 × 10^4 cells/ml
"c1ccc(C(OC2CCN(CCCc3nnn[nH]3)CC2)c2ccccc2)cc1 [HQL-79, 4-benzhydryloxy-1-(3-(1H-tetrazol-5-yl)-propyl)-piperidine, reference compound]",effect on PGD2 production,[4]; TE-671 cells,but not from TE-671 cells
same,effect on PGD2 production,[6],inhibited PGD2 production

# Source: article PMC2658056 (The Journal of Biological Chemistry, 2009)
